Assay results published in PMC9916978, “Enantioselective Human Serum Albumin Binding of Apremilast: Liquid Chromatographic, Fluorescence and Molecular Docking Study” (International Journal of Molecular Sciences, 2023).

Assays:
[1] = target: T1, human serum albumin (HSA) (Homo sapiens, UniProt P02768); assay: Retention on Chiral-HSA column (HPLC) with different organic modifiers; assay type: binding; conditions: 25 °C
T1 construct: purchased Chiral Technologies Inc., a subsidiary of Daicel Chemical Industries Ltd
T1 sequence (P02768 25-609): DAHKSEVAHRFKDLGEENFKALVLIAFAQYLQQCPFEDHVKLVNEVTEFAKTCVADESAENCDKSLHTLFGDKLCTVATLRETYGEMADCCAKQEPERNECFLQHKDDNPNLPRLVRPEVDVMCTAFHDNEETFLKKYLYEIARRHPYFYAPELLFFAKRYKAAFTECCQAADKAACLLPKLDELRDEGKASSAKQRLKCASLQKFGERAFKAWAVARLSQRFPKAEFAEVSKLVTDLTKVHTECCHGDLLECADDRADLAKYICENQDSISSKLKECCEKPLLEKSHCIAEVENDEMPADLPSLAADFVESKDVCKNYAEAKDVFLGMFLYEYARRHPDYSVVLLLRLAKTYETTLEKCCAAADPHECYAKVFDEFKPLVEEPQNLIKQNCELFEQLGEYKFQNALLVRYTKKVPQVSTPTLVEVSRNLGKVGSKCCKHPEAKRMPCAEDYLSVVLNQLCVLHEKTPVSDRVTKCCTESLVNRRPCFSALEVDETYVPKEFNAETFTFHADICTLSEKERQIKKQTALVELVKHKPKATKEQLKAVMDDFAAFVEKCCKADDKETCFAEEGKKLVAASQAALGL
Description: In the next step, different organic modifiers in different percentages were tested. Columns with immobilized proteins, such as Chiral-HSA, are very susceptible to the type and percentage of the organic modifier, which can lead to changes in the tridimensional structure of the protein and can alter the secondary interactions between the analyte and the CSP [30, 31]. According to the instructions of the column manufacturer, the maximum usable organic modifier percentage in the mobile phase was 20% [32]. In our study, the effect of 2-propanol (IPA), 1-propanol (PROP), ethanol (EtOH), methanol (MeOH) and acetonitrile (ACN) on the retention factor (k) and selectivity (α) was investigated. The organic modifiers were used in five different percentages in 10 mM phosphate buffer adjusted to pH 7, using a flow rate of 0.7 mL/min, at 25 °C.
LC–UV analysis was carried out on an Agilent 1100 HPLC system consisting of a quaternary pump, an autosampler, a column compartment, and a DAD detector (Agilent Technologies, Waldbronn, Germany). ChemStation software (ver.: B04 03-SP2) was used for data analysis. UV detection was performed at 230 nm. The APR stock solution was prepared at 1 mg mL^−1 in MeOH, and further dilutions were made with water. An injection volume of 5 μL was used.
The retention factor (k) was calculated using the following equation:(5) k=tr−t0/to where tr is the retention time of the analyte, and t0 is the dead time, determined as the first peak appearance in the chromatogram.
The separation factor (α) was calculated as follows:(6) α=k2/k1 where k1 and k2 are the retention factors of the first- and second-eluting enantiomer, respectively. The k values were used to calculate the albumin-bound percentage (b%) using Equation (7) by zonal elution chromatography:(7) b%=k/1+k·100

[2] = target: T1, human serum albumin (HSA); assay: van 't Hoff thermodynamic analysis on the Chiral-HSA column; assay type: binding; conditions: 10 mM phosphate buffer/IPA 96/4 v/v%, 10–30 °C, transfer from mobile phase to HSA stationary phase
Description: The separation temperature is one of the main determinant factors that can affect selectivity, resolution, retention factor and even the elution order of enantiomers during HPLC enantioseparations. To investigate the effects of temperature and to gain a better understanding of the mechanistic aspects of the enantiodiscrimination process on the Chiral-HSA column, thermodynamic analysis was performed in a 10 mM phosphate buffer/IPA 96/4 v/v% mixture.
To understand the energetic interactions between the analytes and the stationary phase, the classical van ’t Hoff approach was applied assuming only enantioselective interaction sites on the stationary phase. However, it should be noted that it is more realistic if both enantioselective and non-enantioselective interactions are considered.
Van ’t Hoff plots were constructed according to Equation (1) by plotting the natural logarithm of the retention factor as a function of the inverse of the absolute temperature in the temperature range of 10–30 °C, with 5 °C increments (a higher temperature was not applied due to possible column damage) (1) lnk=[…]+ΔS^°/R+lnΦ where R stands for the universal gas constant, T is the temperature in Kelvin, and k is the retention factor of the individual enantiomers. ΔH° denotes the standard enthalpy, while ΔS° is the standard entropy change of transfer of the solute from the mobile phase to the stationary phase, and Φ is the phase ratio of the HSA column. If ΔH° is constant in the selected temperature range, a linear relationship is obtained between lnk and 1/T, with a slope of −ΔH°/R and an intercept of ΔS°/R + lnΦ. Since the value of the phase ratio is seldom known, ΔS°* values (ΔS°* = ΔS° + RlnΦ) are often used to compensate for the uncertainty in Φ [38, 39].
Similarly, the differences in the change of standard enthalpy Δ(ΔH°) and standard entropy Δ(ΔS°) for the two enantiomers moving from the mobile phase to the stationary phase were also calculated according to the modified van ’t Hoff equation:(2) lnα=−∆(∆H^°)/RT+∆(∆S^°)/R
The isoenantioselective temperatures (Tiso) were also calculated as the ratio between Δ(ΔH°) and Δ(ΔS°), according to Equation (3). Tiso represents the temperature at which the enthalpy contribution is compensated by the entropic term, which means that […] (Δ(ΔG°)) equals zero. The thermodynamic parameter Δ(ΔG°) provides information on the strength of binding between selector and selectant, with more negative values indicating a more efficient binding. Consequently, a value of Δ(ΔG°) = 0 means that there is no difference between the binding strength of the enantiomers; therefore, at Tiso, the two enantiomers co-elute, and no separation is achieved. (3) Tiso=∆(∆H^°)/∆(∆S^°) (4) ∆(∆G^°)=∆(∆H^°)−T∗∆(∆S^°)

[3] = 1-PROP 2% in 10 mM phosphate buffer pH 7, 0.7 mL/min
[4] = 1-PROP 4% in 10 mM phosphate buffer pH 7, 0.7 mL/min
[5] = 1-PROP 6% in 10 mM phosphate buffer pH 7, 0.7 mL/min
[6] = 1-PROP 8% in 10 mM phosphate buffer pH 7, 0.7 mL/min
[7] = 1-PROP 10% in 10 mM phosphate buffer pH 7, 0.7 mL/min
[8] = ACN 2% in 10 mM phosphate buffer pH 7, 0.7 mL/min
[9] = ACN 4% in 10 mM phosphate buffer pH 7, 0.7 mL/min
[10] = ACN 6% in 10 mM phosphate buffer pH 7, 0.7 mL/min
[11] = ACN 8% in 10 mM phosphate buffer pH 7, 0.7 mL/min
[12] = ACN 10% in 10 mM phosphate buffer pH 7, 0.7 mL/min
[13] = EtOH 2% in 10 mM phosphate buffer pH 7, 0.7 mL/min
[14] = EtOH 4% in 10 mM phosphate buffer pH 7, 0.7 mL/min
[15] = EtOH 6% in 10 mM phosphate buffer pH 7, 0.7 mL/min
[16] = EtOH 8% in 10 mM phosphate buffer pH 7, 0.7 mL/min
[17] = EtOH 10% in 10 mM phosphate buffer pH 7, 0.7 mL/min
[18] = IPA 2% in 10 mM phosphate buffer pH 7, 0.7 mL/min
[19] = IPA 4% in 10 mM phosphate buffer pH 7, 0.7 mL/min
[20] = IPA 6% in 10 mM phosphate buffer pH 7, 0.7 mL/min
[21] = IPA 8% in 10 mM phosphate buffer pH 7, 0.7 mL/min
[22] = IPA 10% in 10 mM phosphate buffer pH 7, 0.7 mL/min
[23] = MeOH 2% in 10 mM phosphate buffer pH 7, 0.7 mL/min
[24] = MeOH 4% in 10 mM phosphate buffer pH 7, 0.7 mL/min
[25] = MeOH 6% in 10 mM phosphate buffer pH 7, 0.7 mL/min
[26] = MeOH 8% in 10 mM phosphate buffer pH 7, 0.7 mL/min
[27] = MeOH 10% in 10 mM phosphate buffer pH 7, 0.7 mL/min

Row | Structure (SMILES) | retention factor k [1, 3] | retention factor k [1, 4] | retention factor k [1, 5] | retention factor k [1, 6] | retention factor k [1, 7] | retention factor k [1, 8] | retention factor k [1, 9] | retention factor k [1, 10] | retention factor k [1, 11] | retention factor k [1, 12] | retention factor k [1, 13] | retention factor k [1, 14] | retention factor k [1, 15] | retention factor k [1, 16] | retention factor k [1, 17] | retention factor k [1, 18] | retention factor k [1, 19] | retention factor k [1, 20] | retention factor k [1, 21] | retention factor k [1, 22] | other results
1 | CCOc1cc([C@H](CS(C)(=O)=O)N2C(=O)c3cccc(NC(C)=O)c3C2=O)ccc1OC [R-APR] | 8.99 | 5.96 | 4.19 | 1.99 | 1.32 | 7.56 | 3.98 | 2.80 | 2.03 | 1.42 | 8.72 | 4.93 | 3.33 | 2.83 | 2.66 | 8.04 | 5.00 | 3.01 | 2.26 | 1.45 | retention factor k [1, 23]: 13.05; retention factor k [1, 24]: 9.32; retention factor k [1, 25]: 6.05; retention factor k [1, 26]: 4.48; retention factor k [1, 27]: 3.72; Δ(Δ)G° [2]: -0.906 kcal/mol; Δ(Δ)H° [2]: -6.338 kcal/mol; Δ(Δ)S° [2]: −76.29 J/molK
2 | CCOc1cc([C@@H](CS(C)(=O)=O)N2C(=O)c3cccc(NC(C)=O)c3C2=O)ccc1OC [S-APR, apremilast] | 13.98 | 8.04 | 5.20 | 2.25 | 1.32 | 10.05 | 4.90 | 3.09 | 2.03 | 1.42 | 13.84 | 6.52 | 4.12 | 3.20 | 2.94 | 13.48 | 7.62 | 3.76 | 2.56 | 1.45 | retention factor k [1, 23]: 19.00; retention factor k [1, 24]: 15.27; retention factor k [1, 25]: 8.07; retention factor k [1, 26]: 5.32; retention factor k [1, 27]: 3.98; Δ(Δ)G° [2]: -1.06 kcal/mol; Δ(Δ)H° [2]: -7.237 kcal/mol; Δ(Δ)S° [2]: −86.78 J/molK
